Data from paper PMC2234460 (The Journal of General Physiology, 2002).

Target: Shaker K+ channel (Shaker B) (Drosophila melanogaster, UniProt P08510, DEL6-46/F425G/K253C/T449F)
Assay: two-electrode voltage clamp in Xenopus oocytes
Assay type: cell-based

CC[N+](CC)(CC)CC [TEA]
Kd: 200 µM
